Type in all cases: functional, organism-based
The subject of one assay is Entamoeba histolytica. As to the kind of experiment: Inhibitory concentration against Entamoeba histolytica (HK-9) for antiprotozoal activity.
The subject of the next assay is Trichomonas vaginalis. As to the kind of experiment: Inhibitory concentration against Trichomonas vaginalis (tv-43) for anti-trichomonal activity.
The next assay has as its system Giardia intestinalis. Kind of assay: Inhibitory concentration against G. Lamblia (IMSS-0989) for antigiardial activity. The conditions noted are these: Giardia duodenalis.

SMILES strings stand for the structures.

For `O=[N+]([O-])c1ccc(/C=N/N=C(\S)N2CCCCCC2)s1`, the IC50 was determined as 1.71 µM in the assay with Entamoeba histolytica, 8.78 µM with Trichomonas vaginalis and 8.47 µM with Giardia intestinalis.
Taken in the same sequence, the figures for `CC(C)C/N=C(\S)N/N=C/c1ccc([N+](=O)[O-])s1` were 13.5 µM, 6.31 µM and 33.3 µM.
Taken in the same sequence, the figures for `O=[N+]([O-])c1ccc(/C=N/N=C(\S)NC2CCCCC2)s1` were 2.41 µM, 10.7 µM and 13.9 µM.
Take `CN(/C(S)=N/N=C/c1ccc([N+](=O)[O-])s1)C1CCCCC1`: the IC50 was found to be 8.3 µM with Entamoeba histolytica, 18.3 µM in the assay on Trichomonas vaginalis and 11.7 µM with Giardia intestinalis.
Taken in the same sequence, the figures for `CC(C)/N=C(\S)N/N=C/c1ccc([N+](=O)[O-])s1` were 9.6 µM, 5.94 µM and 26.2 µM.
In the case of `CCCC/N=C(\S)N/N=C/c1ccc([N+](=O)[O-])s1`, the 50% inhibitory concentration (IC50) with Entamoeba histolytica turned out to be 12.2 µM; in the assay on Trichomonas vaginalis, 1.49 µM; with Giardia intestinalis, 17.2 µM.
Consider `CC(C)CN(CC(C)C)/C(S)=N/N=C/c1ccc([N+](=O)[O-])s1`, for which the IC50 is 11.6 µM with Entamoeba histolytica, 4.44 µM with Trichomonas vaginalis and 12 µM with Giardia intestinalis.
`Cc1ncc([N+](=O)[O-])n1CCO` [METRONIDAZOLE]: the IC50 in the assay on Entamoeba histolytica is 2.1 µM; in the assay on Trichomonas vaginalis it was 1.92 µM; in the assay on Giardia intestinalis, 1.16 µM.
Consider `CCN(CC)/C(S)=N/N=C/c1ccc([N+](=O)[O-])s1`, for which the results for the IC50 in the assay with Entamoeba histolytica, with Trichomonas vaginalis and in the assay with Giardia intestinalis were 10.1 µM, 6.01 µM and 8.03 µM, respectively.
On to `CCCN(CCC)/C(S)=N/N=C/c1ccc([N+](=O)[O-])s1`, for which the IC50 in the assay on Entamoeba histolytica is 6.4 µM; in the assay on Trichomonas vaginalis, 4.06 µM; in the assay with Giardia intestinalis, 8.2 µM.
On to `O=[N+]([O-])c1ccc(/C=N/N=C(\S)NC2CCCC2)s1`, for which the results for the IC50 in the assay with Entamoeba histolytica, with Trichomonas vaginalis and in the assay with Giardia intestinalis were 2.86 µM, 3.97 µM and 33 µM, respectively.
`CCC/N=C(\S)N/N=C/c1ccc([N+](=O)[O-])s1`: the IC50 in the assay on Entamoeba histolytica amounted to 15.4 µM; with Trichomonas vaginalis it was 21 µM; with Giardia intestinalis it was 57.3 µM.

One may read the IC50 as the point on the concentration scale where inhibition reaches its midpoint.
